Values quoted from earlier work as cited in US20250136601A1 (priority 2022, published 2025).

Columns and labels:
[1] = tested on: depressive episodes associated with bipolar I or II disorder; conditions: Calabrese et al. 2021; cited from earlier work
postsynaptic D2 receptor = postsynaptic D2 receptor (Homo sapiens (Human), UniProt P14416); conditions: postsynaptic D2 receptor antagonist; Li et al., J Med Chem 2014; cited from earlier work
postsynaptic D2 receptor, sequence (P14416 whole entry): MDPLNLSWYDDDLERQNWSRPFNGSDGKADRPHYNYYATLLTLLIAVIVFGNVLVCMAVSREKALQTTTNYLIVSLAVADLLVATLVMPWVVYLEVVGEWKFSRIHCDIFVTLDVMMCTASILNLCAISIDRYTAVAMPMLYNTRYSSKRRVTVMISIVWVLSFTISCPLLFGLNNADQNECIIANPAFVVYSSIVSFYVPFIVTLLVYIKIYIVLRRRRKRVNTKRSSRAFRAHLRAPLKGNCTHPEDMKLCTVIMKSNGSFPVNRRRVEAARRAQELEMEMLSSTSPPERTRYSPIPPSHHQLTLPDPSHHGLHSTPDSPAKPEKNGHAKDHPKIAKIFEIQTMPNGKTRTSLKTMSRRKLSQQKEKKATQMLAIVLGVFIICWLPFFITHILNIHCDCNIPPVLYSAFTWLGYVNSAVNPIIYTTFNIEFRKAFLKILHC

For `CN1CCN2c3c(cccc31)[C@@H]1CN(CCCC(=O)c3ccc(F)cc3)CC[C@@H]12` [lumateperone, Lumateperone], the patient response rate [1] is listed as 51.1% and the Ki (postsynaptic D2 receptor) is listed as 0.032 µM.
